The subject of assay [1] is Staphylococcus aureus (ATCC25923). The experiment in a line: MIC, broth microdilution (CLSI), Staphylococcus aureus ATCC25923. The note with it: ATCC25923, read-out: S. aureus ("Clinical") MIC.
Assay [2] has as its system E. coli RNase P RNA, M1 RNA. Put plainly: Inhibition of bacterial RNase P activity, IC50 determination (cleavage of pATSerUG by M1 RNA). Type of assay: biochemical. The note with it: NI = No inhibition.
For assay [3], the system named is Escherichia coli (ATCC25922). Put plainly: MIC, broth microdilution (CLSI), Escherichia coli ATCC25922. The conditions noted are these: ATCC25922, read-out: E. coli MIC, Table 15, NI = No inhibition.

≈ marks a conversion by molar mass, not a printed value.

As for `N[C@H]1CCC[C@@H](CNc2cc(C(F)(F)F)cc3c2Nc2ccccc2S3)C1` [compound 182, N-(((1R,3S)-3-aminocyclohexyl)methyl)-3-(trifluoromethyl)-10H-phenothiazin-1-amine], the MIC in assay [1] was 3 µg/mL (≈ 7.62 µM); in assay [3], 25 µg/mL (≈ 63.5 µM). This molecule also showed an IC50 in assay [2] of 61 µM.
Turning to `FC(F)(F)c1cc(NC2CCNCC2)cc2c1Nc1ccccc1S2` [compound 240, N-(piperidin-4-yl)-1-(trifluoromethyl)-10H-phenothiazin-3-amine], the results for the MIC in assay [1] and in assay [3] were 23 µg/mL (≈ 62.9 µM) and over 100 µg/mL, respectively. Also, it took 62 µM to reach half-maximal inhibition in assay [2] (IC50).
As for `NC1CCCC(c2nc3cc(C(F)(F)F)cc4c3n2-c2ccccc2S4)C1` (stereo not drawn) [compound 191, 3-(4-(trifluoromethyl)imidazo[4,5,1-kl]phenothiazin-1-yl)cyclohexan-amine], the values for the MIC in assay [1] and in assay [3] were 6 µg/mL (≈ 15.4 µM) and 50 µg/mL (≈ 128 µM), respectively. Moreover, it took 19 µM to reach half-maximal inhibition in assay [2] (IC50).
As to `CN(C)CCCN1c2ccccc2Sc2cc(-c3nc4ccccc4s3)ccc21` [compound 143, 3-(3-(Benzo[d]thiazol-2-yl)-10H-phenothiazin-10-yl)-N,N-dimethylpropan-1-amine], the figures for the MIC in assay [1] and in assay [3] were 3 µg/mL (≈ 7.18 µM) and over 100 µg/mL, respectively. The molecule also returned a 50% inhibitory concentration (IC50) in assay [2] of over 100 µM.
Consider `FC(F)(F)c1cc(NC2CCCNCC2)c2c(c1)Sc1ccccc1N2` (stereo not drawn) [compound 221, N-(azepan-4-yl)-3-(trifluoromethyl)-10H-phenothiazin-1-amine], for which the MIC in assay [1] was determined as 6 µg/mL (≈ 15.8 µM); in assay [3], 24 µg/mL (≈ 63.2 µM). The same molecule registered a half-inhibitory concentration (IC50) in assay [2] of over 100 µM.
Take `Clc1cc(NC2CCNCC2)c2c(c1)Sc1ccccc1N2` [compound 184, 3-chloro-N-(piperidin-4-yl)-10H-phenothiazin-1-amine]: the MIC in assay [1] turned out to be 5 µg/mL (≈ 15.1 µM); in assay [3], 21 µg/mL (≈ 63.3 µM). Besides, in assay [2], the 50% inhibitory concentration (IC50) turned out to be 11 µM.
Consider `FC(F)(F)c1cc2c3c(c1)nc(C1CCNCC1)n3-c1ccccc1S2` [compound 232, 1-(piperidin-4-yl)-4-(trifluoromethyl) imidazo[4,5,1-kl]phenothiazine], for which the MIC in assay [1] is 6 µg/mL (≈ 16 µM); in assay [3] it was 24 µg/mL (≈ 63.9 µM). Further, in assay [2], the IC50 was 29 µM.
Turning to `O=C(CCN1CCNCC1)Nc1cc(C(F)(F)F)cc2c1Nc1ccccc1S2` [compound 101, 3-(piperazin-1-yl)-N-(3-(trifluoromethyl)-10H-phenothiazin-1-yl)propanamide], the MIC in assay [1] amounted to 32 µg/mL (≈ 75.7 µM); in assay [3], 64 µg/mL (≈ 151 µM). Further, in assay [2], the IC50 is over 100 µM.
For `COc1ccc2[nH]c(-c3ccc4c(c3)Sc3ccccc3N4CCCN(C)C)cc2c1` [compound 144, 3-(3-(5-methoxy-1H-indol-2-yl)-10H-phenothiazin-10-yl)-N,N-dimethylpropan-1-amine], in that order: 3 µg/mL (≈ 6.98 µM), over 100 µg/mL and over 100 µM.
In the case of `NCCN1CCC(Nc2cc(C(F)(F)F)cc3c2Nc2ccccc2O3)CC1` [compound 206, N-(1-(2-aminoethyl)piperidin-4-yl)-3-(trifluoromethyl)-10H-phenoxazin-1-amine], the minimum inhibitory concentration (MIC) in assay [1] is 25 µg/mL (≈ 63.7 µM); in assay [3], 50 µg/mL (≈ 127 µM). The same molecule came in with an IC50 in assay [2] of 89 µM.
For `COc1cc(-c2ccc3c(c2)Sc2ccccc2N3CCCN(C)C)ccn1` [compound 153, 3-(3-(2-methoxypyridin-4-yl)-10H-phenothiazin-10-yl)-N,N-dimethylpropan-1-amine], in that order: 25 µg/mL (≈ 63.9 µM), over 100 µg/mL and over 100 µM.
For the molecule `NC[C@H]1CCC[C@H](CNc2cc(C(F)(F)F)cc3c2Nc2ccccc2S3)C1` [compound 189, N-(((1S,3S)-3-(aminomethyl)cyclohexyl)methyl)-3-(trifluoromethyl)-10H-phenothiazin-1-amine], the MIC came to 3 µg/mL (≈ 7.36 µM) in assay [1] and 52 µg/mL (≈ 128 µM) in assay [3]. This molecule had an IC50 in assay [2] of over 100 µM.
For `NCC1CCC(CNc2cc(C(F)(F)F)cc3c2Nc2ccccc2S3)CC1` (stereo not drawn) [compound 158, N-((4-(aminomethyl)cyclohexyl)methyl)-3-(trifluoromethyl)-10H-phenothiazin-1-amine], in that order: 3 µg/mL (≈ 7.36 µM), 52 µg/mL (≈ 128 µM) and 53 µM.
For `Nc1cc(C(F)(F)F)cc2c1N(CCCN1CCNCC1)c1ccccc1S2` [compound 83, 10-(3-(piperazin-1-yl)propyl)-3-(trifluoromethyl)-10H-phenothiazin-1-amine], the MIC in assay [1] is 32 µg/mL (≈ 78.3 µM); in assay [3], over 100 µg/mL. In assay [2], this molecule displayed an IC50 of over 100 µM.
For `CN(C)CCCN1c2ccccc2Sc2cc(-c3cc4cc(CN)ccc4[nH]3)ccc21` [compound 181, 3-(3-(5-(aminomethyl)-1H-indol-2-yl)-10H-phenothiazin-10-yl)-N,N-dimethylpropan-1-amine], in that order: 7 µg/mL (≈ 16.3 µM), 27 µg/mL (≈ 63 µM) and over 100 µM.
Turning to `O=C(Nc1cc(C(F)(F)F)cc2c1Nc1ccccc1S2)[C@@H]1CCCNC1` [compound 100, (R)-N-(3-(trifluoromethyl)-10H-phenothiazin-1-yl)piperidine-3-carboxamide], the MIC in assay [1] is 16 µg/mL (≈ 40.7 µM); in assay [3], 32 µg/mL (≈ 81.3 µM). This molecule registered a 50% inhibitory concentration (IC50) in assay [2] of over 100 µM.
On to `FC(F)(F)c1cc(NCC2CCNCC2)c2c(c1)Sc1ccccc1N2` [compound 173, N-(piperidin-4-ylmethyl)-3-(trifluoromethyl)-10H-phenothiazin-1-amine], for which the MIC in assay [1] was 24 µg/mL (≈ 63.2 µM); in assay [3] it was over 100 µg/mL. In assay [2], the IC50 is 59 µM.
For the molecule `CN(C)CCCN1c2ccc(Cl)cc2Sc2cccnc21` [compound 126, 3-(7-chloro-10H-benzo[b]pyrido [2,3-e][1,4]thiazin-10-yl)-N,N-dimethyl-propan-1-amine], the MIC in assay [1] was 82 µg/mL (≈ 256 µM); in assay [3], over 100 µg/mL. The molecule further came in with an IC50 in assay [2] of over 100 µM.
For `FC(F)(F)c1cc(NC[C@@H]2COCCN2)c2c(c1)Sc1ccccc1N2` [compound 159, (R)-N-(morpholin-3-ylmethyl)-3-(trifluoromethyl)-10H-phenothiazin-1-amine], in that order: 12 µg/mL (≈ 31.5 µM), over 100 µg/mL and over 100 µM.
`O=C(CC1(O)CCC(F)(F)CC1)Nc1cc(C(F)(F)F)cc2c1Nc1ccccc1S2` [compound 115, 2-(4,4-difluoro-1-hydroxycyclo-hexyl)-N-(3-(trifluoromethyl)-10H-phenothiazin-1-yl)acetamide]: the MIC in assay [1] was 7 µg/mL (≈ 15.3 µM); in assay [3], over 100 µg/mL. The molecule further registered an IC50 in assay [2] of over 100 µM.
For `NC1CC(C(=O)Nc2cc(C(F)(F)F)cc3c2Nc2ccccc2S3)C1` (stereo not drawn) [compound 175, 3-amino-N-(3-(trifluoromethyl)-10H-phenothiazin-1-yl)cyclobutane-carboxamide], in that order: 24 µg/mL (≈ 63.3 µM), 49 µg/mL (≈ 129 µM) and 80 µM.
Turning to `N[C@@H]1CCC[C@@H](CNc2cc(C(F)(F)F)cc3c2Nc2ccccc2S3)C1` [compound 171, N-(((1R,3R)-3-aminocyclohexyl)methyl)-3-(trifluoromethyl)-10H-phenothiazin-1-amine], the results for the minimum inhibitory concentration (MIC) in assay [1] and in assay [3] were 3 µg/mL (≈ 7.62 µM) and 13 µg/mL (≈ 33 µM), respectively. This molecule registered an IC50 in assay [2] of 42 µM.
For the molecule `NC1CCCC(CC(=O)Nc2cc(C(F)(F)F)cc3c2Nc2ccccc2S3)C1` (stereo not drawn) [compound 167, 2-(3-aminocyclohexyl)-N-(3-(trifluoromethyl)-10H-phenothiazin-1-yl)acetamide], the MIC in assay [1] came to 13 µg/mL (≈ 30.8 µM); in assay [3], 27 µg/mL (≈ 64.1 µM). The half-maximal inhibitory concentration (IC50) in assay [2] is over 100 µM.
On to `NCCN1CCC(Nc2cc3c(c(C(F)(F)F)c2)Nc2ccccc2S3)CC1` [compound 252, N-(1-(2-aminoethyl)piperidin-4-yl)-1-(trifluoromethyl)-10H-phenothiazin-3-amine], for which the figures for the MIC in assay [1] and in assay [3] were 7 µg/mL (≈ 17.1 µM) and 26 µg/mL (≈ 63.6 µM), respectively. This molecule also showed an IC50 in assay [2] of 9 µM.
For `CC(N)CC(=O)Nc1cc(C(F)(F)F)cc2c1N(CCCN(C)C)c1ccccc1S2` (stereo not drawn) [compound 90, 3-amino-N-(10-(3-(dimethylamino)propyl)-3-(trifluoromethyl)-10H-phenothiazin-1-yl)butanamide], the MIC in assay [1] is 64 µg/mL (≈ 141 µM); in assay [3] it was over 100 µg/mL. In assay [2], this molecule registered an IC50 of over 100 µM.
Consider `NC1CCC(Nc2cc(C(F)(F)F)cc3c2Nc2ccccc2S3)CC1` (stereo not drawn) [compound 180, N1-(3-(trifluoromethyl)-10H-phenothiazin-1-yl)cyclohexane-1,4-diamine], for which the results for the MIC in assay [1] and in assay [3] were 7 µg/mL (≈ 18.4 µM) and 14 µg/mL (≈ 36.9 µM), respectively. In assay [2], the half-maximal inhibitory concentration (IC50) amounted to 87 µM.
`NC1CC(N)CC(C(=O)Nc2cc(C(F)(F)F)cc3c2Nc2ccccc2S3)C1` (stereo not drawn) [compound 170, 3,5-diamino-N-(3-(trifluoromethyl)-10H-phenothiazin-1-yl)cyclohexane-carboxamide]: the minimum inhibitory concentration (MIC) in assay [1] came out at 3 µg/mL (≈ 7.1 µM); in assay [3], 7 µg/mL (≈ 16.6 µM). In assay [2], this molecule returned an IC50 of 59 µM.
Consider `FC(F)(F)c1cc(NC2CCNCC2)c2c(c1)Sc1cc(-c3cc4ccccc4[nH]3)ccc1N2.O=C(O)C(F)(F)F` [compound 212, 7-(1H-indol-2-yl)-N-(piperidin-4-yl)-3-(trifluoromethyl)-10H-phenothiazin-1-amine trifluoroacetic Acid Salt], for which the values for the MIC in assay [1] and in assay [3] were 19 µg/mL and over 100 µg/mL, respectively. The IC50 in assay [2] (trifluoroacetic Acid Salt) amounted to 5 µM.
For the molecule `NC1CCCC(C(=O)Nc2cc(Cl)cc3c2Nc2ccccc2S3)C1` (stereo not drawn) [compound 161, 3-amino-N-(3-chloro-10H-phenothiazin-1-yl)cyclohexane-carboxamide], the MIC was 24 µg/mL (≈ 64.2 µM) in assay [1] and 96 µg/mL (≈ 257 µM) in assay [3]. This molecule also displayed an IC50 in assay [2] of 68 µM.
For `FC(F)(F)c1cc(NC2CNC2)c2c(c1)Sc1ccccc1N2` [compound 193, N-(azetidin-3-yl)-3-(trifluoromethyl)-10H-phenothiazin-1-amine], in that order: 5 µg/mL (≈ 14.8 µM), 22 µg/mL (≈ 65.2 µM) and 180 µM.
